Test results reported in patent US12441726B2, “Compounds and uses thereof” (Foghorn Therapeutics Inc., priority 2020, dated 2025).

target: BRG-1 (Homo sapiens, UniProt P51532); assay: ATPase catalytic activity assay (ADP-Glo), BRG-1; settings: not given
Sequence (P51532 whole entry): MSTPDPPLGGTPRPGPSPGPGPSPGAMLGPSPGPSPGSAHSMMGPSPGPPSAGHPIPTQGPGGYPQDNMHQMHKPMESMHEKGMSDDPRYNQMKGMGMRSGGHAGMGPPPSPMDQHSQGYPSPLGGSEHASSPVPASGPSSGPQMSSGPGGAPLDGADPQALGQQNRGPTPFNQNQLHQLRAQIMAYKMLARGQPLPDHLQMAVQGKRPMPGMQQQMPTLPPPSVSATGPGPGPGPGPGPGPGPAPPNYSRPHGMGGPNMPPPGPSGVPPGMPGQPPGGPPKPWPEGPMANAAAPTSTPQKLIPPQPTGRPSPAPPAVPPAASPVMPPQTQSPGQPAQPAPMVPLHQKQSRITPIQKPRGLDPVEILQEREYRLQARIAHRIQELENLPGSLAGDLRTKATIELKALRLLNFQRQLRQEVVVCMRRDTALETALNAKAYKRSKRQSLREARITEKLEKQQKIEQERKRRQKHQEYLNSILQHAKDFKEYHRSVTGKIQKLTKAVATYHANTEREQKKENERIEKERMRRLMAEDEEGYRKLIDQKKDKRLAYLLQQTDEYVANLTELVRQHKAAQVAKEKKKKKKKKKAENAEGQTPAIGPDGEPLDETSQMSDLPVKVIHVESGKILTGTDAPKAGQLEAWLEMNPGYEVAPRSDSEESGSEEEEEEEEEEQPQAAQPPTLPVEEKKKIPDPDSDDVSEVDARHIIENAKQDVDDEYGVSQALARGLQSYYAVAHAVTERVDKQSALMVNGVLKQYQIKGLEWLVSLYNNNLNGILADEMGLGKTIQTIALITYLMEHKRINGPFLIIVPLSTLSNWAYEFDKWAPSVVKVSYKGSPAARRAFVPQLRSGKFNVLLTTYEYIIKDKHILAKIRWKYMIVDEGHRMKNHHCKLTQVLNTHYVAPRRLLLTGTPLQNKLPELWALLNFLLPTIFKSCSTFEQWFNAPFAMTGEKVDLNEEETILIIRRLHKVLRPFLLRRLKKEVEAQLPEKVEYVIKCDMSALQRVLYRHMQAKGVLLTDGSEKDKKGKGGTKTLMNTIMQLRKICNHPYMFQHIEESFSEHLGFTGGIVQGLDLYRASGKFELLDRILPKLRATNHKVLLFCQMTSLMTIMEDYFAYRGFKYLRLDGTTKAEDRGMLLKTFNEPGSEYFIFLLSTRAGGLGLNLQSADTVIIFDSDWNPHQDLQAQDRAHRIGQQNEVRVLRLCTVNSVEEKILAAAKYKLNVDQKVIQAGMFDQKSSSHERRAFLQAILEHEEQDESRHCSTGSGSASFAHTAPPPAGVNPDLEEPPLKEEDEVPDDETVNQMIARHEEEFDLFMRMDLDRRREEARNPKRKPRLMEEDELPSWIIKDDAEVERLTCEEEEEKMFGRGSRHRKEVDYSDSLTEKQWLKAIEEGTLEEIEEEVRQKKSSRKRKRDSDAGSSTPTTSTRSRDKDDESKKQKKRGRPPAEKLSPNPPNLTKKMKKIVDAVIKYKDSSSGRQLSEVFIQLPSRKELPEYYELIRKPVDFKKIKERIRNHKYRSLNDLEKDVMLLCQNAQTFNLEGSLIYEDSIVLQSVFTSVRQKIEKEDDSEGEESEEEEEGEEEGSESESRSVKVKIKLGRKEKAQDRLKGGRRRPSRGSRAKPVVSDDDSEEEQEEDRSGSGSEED

| Structure (SMILES) | IC50 [nM] |
| --- | --- |
| C[C@@]1(C#N)COCc2ccc(C(=O)NCc3cc4c(nn3)CCN(c3cncc(N5CCC5)n3)C4)cc21 [Compound 247] | > 1000 |
| Cn1cc(-c2ccc3cnc(CNC(=O)c4ccc5c(c4)[C@](C)(F)COC5)cc3n2)c(C#N)n1 [Compound 305] | > 1000 |
| C[C@@]1(C#N)COCc2ccc(C(=O)NCc3cc4nc(-c5ccccc5C(F)F)ccc4cn3)cc21 [Compound 521] | > 1000 |
| C[C@@]1(C#N)COCc2ccc(C(=O)NCc3cc4nc(-c5cncc(N6CC[C@@H](F)C6)n5)ccc4cn3)cc21 [Compound 291] | < 100 |
| C[C@@]1(C#N)COCc2ccc(C(=O)NCc3cc4cc(-c5cccc(N6CCC6)n5)ccc4cn3)cc21 [Compound 369] | < 100 |
| O=C(NCc1cc2nc(-c3ccccc3)ccc2cn1)c1cccc(C2(C(F)F)COC2)c1 [Compound 100] | > 1000 |
| C[C@@]1(C#N)COCc2ccc(C(=O)NCc3cc4c(cn3)CCN(c3ccnc(N5CCC5)n3)C4)cc21 [Compound 332] | 500 to 1000 |
| COC(=O)c1cccc(C#Cc2ccnc(CNC(=O)c3ccc4c(c3)[C@](C)(C#N)CCN4)c2)c1 [Compound 39] | > 1000 |
| COc1nn(C2COC2)cc1-c1ccc2cnc(CNC(=O)c3ccc4c(c3)[C@](C)(F)COC4)cc2n1 [Compound 201] | 500 to 1000 |
| COc1nn(C)cc1-c1ccc2cnc(CNC(=O)c3cnc4c(c3)[C@](C)(F)COC4)cc2n1 [Compound 334] | 500 to 1000 |
| C[C@@]1(C#N)COCc2ccc(C(=O)NCc3cc(OCc4cc(F)c5c(c4)CCO5)ccn3)cc21 [Compound 45] | 500 to 1000 |
| C[C@@]1(C#N)COCc2ccc(C(=O)NCc3cc4c(cn3)CCN(c3cncc(C5CC5)n3)C4)cc21 [Compound 328] | 500 to 1000 |
| C[C@@]1(C#N)COCc2ccc(C(=O)NCc3cc4nc(-c5cnn(C(F)F)c5)ccc4cn3)cc21 [Compound 504] | > 1000 |
| COc1nn(C)cc1-c1cnc2cnc(CNC(=O)c3ccc4c(c3)[C@](C)(F)COC4)cc2c1 [Compound 338] | 500 to 1000 |
| C[C@@]1(F)COCc2ccc(C(=O)NCc3cc4nc(-c5cncc(C6CC6)n5)ccc4nn3)cc21 [Compound 255] | 100 to 500 |
| C[C@@]1(C#N)COCc2ccc(C(=O)NCc3cc4nc(-c5ccnc(N6CC[C@@H](F)C6)n5)ccc4cn3)cc21 [Compound 306] | 100 to 500 |
| C[C@@]1(C#N)COCc2ccc(C(=O)NCc3cc4nc(-c5ccnc(N6CCC6)c5F)sc4cn3)cc21 [Compound 235] | 100 to 500 |
| C[C@@]1(C#N)COCc2ccc(C(=O)NCc3ncc4ccc(-c5ccccc5)nc4c3F)cc21 [Compound 167] | 500 to 1000 |

same assay, conditions: 1 h, read-out: BRG1 Max % Inhibition, ADP-Glo, 30 nM BRG-1, 400 μM ATP

| Structure (SMILES) | Emax [%] |
| --- | --- |
| C[C@@]1(C#N)COCc2ccc(C(=O)NCc3cc4c(nn3)CCN(c3cncc(N5CCC5)n3)C4)cc21 [Compound 247] | 65 |
| Cn1cc(-c2ccc3cnc(CNC(=O)c4ccc5c(c4)[C@](C)(F)COC5)cc3n2)c(C#N)n1 [Compound 305] | 40 |
| C[C@@]1(C#N)COCc2ccc(C(=O)NCc3cc4nc(-c5ccccc5C(F)F)ccc4cn3)cc21 [Compound 521] | 34 |
| C[C@@]1(C#N)COCc2ccc(C(=O)NCc3cc4nc(-c5cncc(N6CC[C@@H](F)C6)n5)ccc4cn3)cc21 [Compound 291] | 97 |
| C[C@@]1(C#N)COCc2ccc(C(=O)NCc3cc4cc(-c5cccc(N6CCC6)n5)ccc4cn3)cc21 [Compound 369] | 95 |
| O=C(NCc1cc2nc(-c3ccccc3)ccc2cn1)c1cccc(C2(C(F)F)COC2)c1 [Compound 100] | 25 |
| C[C@@]1(C#N)COCc2ccc(C(=O)NCc3cc4c(cn3)CCN(c3ccnc(N5CCC5)n3)C4)cc21 [Compound 332] | 67 |
| COC(=O)c1cccc(C#Cc2ccnc(CNC(=O)c3ccc4c(c3)[C@](C)(C#N)CCN4)c2)c1 [Compound 39] | 28 |
| COc1nn(C2COC2)cc1-c1ccc2cnc(CNC(=O)c3ccc4c(c3)[C@](C)(F)COC4)cc2n1 [Compound 201] | 76 |
| COc1nn(C)cc1-c1ccc2cnc(CNC(=O)c3cnc4c(c3)[C@](C)(F)COC4)cc2n1 [Compound 334] | 61 |
| C[C@@]1(C#N)COCc2ccc(C(=O)NCc3cc(OCc4cc(F)c5c(c4)CCO5)ccn3)cc21 [Compound 45] | 79 |
| C[C@@]1(C#N)COCc2ccc(C(=O)NCc3cc4c(cn3)CCN(c3cncc(C5CC5)n3)C4)cc21 [Compound 328] | 81 |
| C[C@@]1(C#N)COCc2ccc(C(=O)NCc3cc4nc(-c5cnn(C(F)F)c5)ccc4cn3)cc21 [Compound 504] | 44 |
| COc1nn(C)cc1-c1cnc2cnc(CNC(=O)c3ccc4c(c3)[C@](C)(F)COC4)cc2c1 [Compound 338] | 56 |
| C[C@@]1(F)COCc2ccc(C(=O)NCc3cc4nc(-c5cncc(C6CC6)n5)ccc4nn3)cc21 [Compound 255] | 90 |
| C[C@@]1(C#N)COCc2ccc(C(=O)NCc3cc4nc(-c5ccnc(N6CC[C@@H](F)C6)n5)ccc4cn3)cc21 [Compound 306] | 94 |
| C[C@@]1(C#N)COCc2ccc(C(=O)NCc3cc4nc(-c5ccnc(N6CCC6)c5F)sc4cn3)cc21 [Compound 235] | 72 |
| C[C@@]1(C#N)COCc2ccc(C(=O)NCc3ncc4ccc(-c5ccccc5)nc4c3F)cc21 [Compound 167] | 69 |

target: BRM (Homo sapiens, UniProt P51531); assay: ATPase catalytic activity assay (ADP-Glo), BRM; settings: 30 nM BRM, 400 μM ATP
Sequence (P51531 whole entry): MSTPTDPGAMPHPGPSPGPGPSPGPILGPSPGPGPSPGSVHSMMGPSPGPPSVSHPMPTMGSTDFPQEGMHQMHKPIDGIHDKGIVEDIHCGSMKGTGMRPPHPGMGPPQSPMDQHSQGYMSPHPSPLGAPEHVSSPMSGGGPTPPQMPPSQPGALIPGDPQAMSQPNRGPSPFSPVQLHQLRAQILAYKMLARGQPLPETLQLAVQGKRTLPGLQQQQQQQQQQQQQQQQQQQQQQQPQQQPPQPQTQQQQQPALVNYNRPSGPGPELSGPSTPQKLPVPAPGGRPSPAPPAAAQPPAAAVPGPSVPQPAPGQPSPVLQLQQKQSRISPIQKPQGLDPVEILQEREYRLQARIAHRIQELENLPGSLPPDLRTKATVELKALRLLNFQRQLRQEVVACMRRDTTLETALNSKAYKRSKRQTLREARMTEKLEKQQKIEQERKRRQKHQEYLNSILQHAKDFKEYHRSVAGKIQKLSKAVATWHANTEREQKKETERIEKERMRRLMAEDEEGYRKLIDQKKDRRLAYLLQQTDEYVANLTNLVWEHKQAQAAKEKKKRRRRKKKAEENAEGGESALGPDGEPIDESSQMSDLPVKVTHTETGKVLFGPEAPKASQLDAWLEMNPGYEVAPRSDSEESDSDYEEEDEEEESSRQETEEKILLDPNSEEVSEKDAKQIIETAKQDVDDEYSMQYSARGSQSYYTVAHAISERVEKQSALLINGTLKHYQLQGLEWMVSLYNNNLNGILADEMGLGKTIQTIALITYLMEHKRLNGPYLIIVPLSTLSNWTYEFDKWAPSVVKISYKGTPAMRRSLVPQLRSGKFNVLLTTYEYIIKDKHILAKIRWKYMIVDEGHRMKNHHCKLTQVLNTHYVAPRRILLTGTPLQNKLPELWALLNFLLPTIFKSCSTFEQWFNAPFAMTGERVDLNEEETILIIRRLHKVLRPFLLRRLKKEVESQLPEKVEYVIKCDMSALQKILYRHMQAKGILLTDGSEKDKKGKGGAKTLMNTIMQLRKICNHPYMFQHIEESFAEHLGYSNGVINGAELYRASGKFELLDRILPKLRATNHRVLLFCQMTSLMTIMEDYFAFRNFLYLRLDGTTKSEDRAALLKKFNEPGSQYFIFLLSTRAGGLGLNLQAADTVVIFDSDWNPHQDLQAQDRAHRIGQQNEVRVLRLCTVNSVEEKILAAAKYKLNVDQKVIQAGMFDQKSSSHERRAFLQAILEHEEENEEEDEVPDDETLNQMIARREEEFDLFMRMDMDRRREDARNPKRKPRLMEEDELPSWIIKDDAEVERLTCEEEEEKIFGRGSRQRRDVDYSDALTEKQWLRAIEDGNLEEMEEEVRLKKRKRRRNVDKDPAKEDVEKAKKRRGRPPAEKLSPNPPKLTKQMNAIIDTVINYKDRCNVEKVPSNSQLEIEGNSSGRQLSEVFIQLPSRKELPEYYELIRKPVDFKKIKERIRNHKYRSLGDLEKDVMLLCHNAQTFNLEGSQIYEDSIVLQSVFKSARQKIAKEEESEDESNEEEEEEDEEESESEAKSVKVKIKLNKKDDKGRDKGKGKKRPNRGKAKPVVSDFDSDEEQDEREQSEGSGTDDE

| Structure (SMILES) | BRM Max % Inhibition [%] |
| --- | --- |
| C[C@@]1(C#N)COCc2ccc(C(=O)NCc3cc4c(nn3)CCN(c3cncc(N5CCC5)n3)C4)cc21 [Compound 247] | 93 |
| Cn1cc(-c2ccc3cnc(CNC(=O)c4ccc5c(c4)[C@](C)(F)COC5)cc3n2)c(C#N)n1 [Compound 305] | 87 |
| C[C@@]1(C#N)COCc2ccc(C(=O)NCc3cc4nc(-c5ccccc5C(F)F)ccc4cn3)cc21 [Compound 521] | 85 |
| C[C@@]1(C#N)COCc2ccc(C(=O)NCc3cc4nc(-c5cncc(N6CC[C@@H](F)C6)n5)ccc4cn3)cc21 [Compound 291] | 100 |
| C[C@@]1(C#N)COCc2ccc(C(=O)NCc3cc4cc(-c5cccc(N6CCC6)n5)ccc4cn3)cc21 [Compound 369] | 104 |
| O=C(NCc1cc2nc(-c3ccccc3)ccc2cn1)c1cccc(C2(C(F)F)COC2)c1 [Compound 100] | 83 |
| C[C@@]1(C#N)COCc2ccc(C(=O)NCc3cc4c(cn3)CCN(c3ccnc(N5CCC5)n3)C4)cc21 [Compound 332] | 96 |
| COC(=O)c1cccc(C#Cc2ccnc(CNC(=O)c3ccc4c(c3)[C@](C)(C#N)CCN4)c2)c1 [Compound 39] | 75 |
| COc1nn(C2COC2)cc1-c1ccc2cnc(CNC(=O)c3ccc4c(c3)[C@](C)(F)COC4)cc2n1 [Compound 201] | 99 |
| COc1nn(C)cc1-c1ccc2cnc(CNC(=O)c3cnc4c(c3)[C@](C)(F)COC4)cc2n1 [Compound 334] | 96 |
| C[C@@]1(C#N)COCc2ccc(C(=O)NCc3cc(OCc4cc(F)c5c(c4)CCO5)ccn3)cc21 [Compound 45] | 96 |
| C[C@@]1(C#N)COCc2ccc(C(=O)NCc3cc4c(cn3)CCN(c3cncc(C5CC5)n3)C4)cc21 [Compound 328] | 99 |
| C[C@@]1(C#N)COCc2ccc(C(=O)NCc3cc4nc(-c5cnn(C(F)F)c5)ccc4cn3)cc21 [Compound 504] | 84 |
| COc1nn(C)cc1-c1cnc2cnc(CNC(=O)c3ccc4c(c3)[C@](C)(F)COC4)cc2c1 [Compound 338] | 97 |
| C[C@@]1(F)COCc2ccc(C(=O)NCc3cc4nc(-c5cncc(C6CC6)n5)ccc4nn3)cc21 [Compound 255] | 100 |
| C[C@@]1(C#N)COCc2ccc(C(=O)NCc3cc4nc(-c5ccnc(N6CC[C@@H](F)C6)n5)ccc4cn3)cc21 [Compound 306] | 99 |
| C[C@@]1(C#N)COCc2ccc(C(=O)NCc3cc4nc(-c5ccnc(N6CCC6)c5F)sc4cn3)cc21 [Compound 235] | 99 |
| C[C@@]1(C#N)COCc2ccc(C(=O)NCc3ncc4ccc(-c5ccccc5)nc4c3F)cc21 [Compound 167] | 93 |

same assay, conditions: BRM ATPase: IC50 (uM), 30 nM BRM, 400 μM ATP

| Structure (SMILES) | IC50 [µM] |
| --- | --- |
| C[C@@]1(C#N)COCc2ccc(C(=O)NCc3cc4c(nn3)CCN(c3cncc(N5CCC5)n3)C4)cc21 [Compound 247] | 0.1 to 0.5 |
| Cn1cc(-c2ccc3cnc(CNC(=O)c4ccc5c(c4)[C@](C)(F)COC5)cc3n2)c(C#N)n1 [Compound 305] | 0.1 to 0.5 |
| C[C@@]1(C#N)COCc2ccc(C(=O)NCc3cc4nc(-c5ccccc5C(F)F)ccc4cn3)cc21 [Compound 521] | 0.1 to 0.5 |
| C[C@@]1(C#N)COCc2ccc(C(=O)NCc3cc4nc(-c5cncc(N6CC[C@@H](F)C6)n5)ccc4cn3)cc21 [Compound 291] | < 0.1 |
| C[C@@]1(C#N)COCc2ccc(C(=O)NCc3cc4cc(-c5cccc(N6CCC6)n5)ccc4cn3)cc21 [Compound 369] | < 0.1 |
| O=C(NCc1cc2nc(-c3ccccc3)ccc2cn1)c1cccc(C2(C(F)F)COC2)c1 [Compound 100] | 0.5 to 1 |
| C[C@@]1(C#N)COCc2ccc(C(=O)NCc3cc4c(cn3)CCN(c3ccnc(N5CCC5)n3)C4)cc21 [Compound 332] | 0.1 to 0.5 |
| COC(=O)c1cccc(C#Cc2ccnc(CNC(=O)c3ccc4c(c3)[C@](C)(C#N)CCN4)c2)c1 [Compound 39] | > 1 |
| COc1nn(C2COC2)cc1-c1ccc2cnc(CNC(=O)c3ccc4c(c3)[C@](C)(F)COC4)cc2n1 [Compound 201] | < 0.1 |
| COc1nn(C)cc1-c1ccc2cnc(CNC(=O)c3cnc4c(c3)[C@](C)(F)COC4)cc2n1 [Compound 334] | 0.1 to 0.5 |
| C[C@@]1(C#N)COCc2ccc(C(=O)NCc3cc(OCc4cc(F)c5c(c4)CCO5)ccn3)cc21 [Compound 45] | < 0.1 |
| C[C@@]1(C#N)COCc2ccc(C(=O)NCc3cc4c(cn3)CCN(c3cncc(C5CC5)n3)C4)cc21 [Compound 328] | < 0.1 |
| C[C@@]1(C#N)COCc2ccc(C(=O)NCc3cc4nc(-c5cnn(C(F)F)c5)ccc4cn3)cc21 [Compound 504] | 0.1 to 0.5 |
| COc1nn(C)cc1-c1cnc2cnc(CNC(=O)c3ccc4c(c3)[C@](C)(F)COC4)cc2c1 [Compound 338] | 0.1 to 0.5 |
| C[C@@]1(F)COCc2ccc(C(=O)NCc3cc4nc(-c5cncc(C6CC6)n5)ccc4nn3)cc21 [Compound 255] | < 0.1 |
| C[C@@]1(C#N)COCc2ccc(C(=O)NCc3cc4nc(-c5ccnc(N6CC[C@@H](F)C6)n5)ccc4cn3)cc21 [Compound 306] | < 0.1 |
| C[C@@]1(C#N)COCc2ccc(C(=O)NCc3cc4nc(-c5ccnc(N6CCC6)c5F)sc4cn3)cc21 [Compound 235] | < 0.1 |
| C[C@@]1(C#N)COCc2ccc(C(=O)NCc3ncc4ccc(-c5ccccc5)nc4c3F)cc21 [Compound 167] | 0.1 to 0.5 |
